Experimental data taken from ChEMBL document CHEMBL4020767, “Structural insight into the active site of mushroom tyrosinase using phenylbenzoic acid derivatives” (Bioorg Med Chem Lett, 2017).

These molecules were tested against Mushroom tyrosinase (Agaricus bisporus, UniProt O42713+Q00024+C7FF04+C7FF05) (assay: Inhibition of mushroom tyrosinase […] measured at 60 secs interval for 25 times).
Work on `O=C(O)c1ccc(-c2ccccc2)cc1` yielded an IC50 of 63.24 µM.
For `COc1ccc(-c2ccc(C(=O)O)cc2)cc1`, the IC50 was 15.3 µM.
`O=C(O)c1cccc(-c2ccccc2)c1` showed an IC50 of 6.97 µM.
Molecule `O=C(O)c1ccccc1-c1ccccc1` has an IC50 of over 100 µM.
Molecule `COc1ccc(-c2cccc(C(=O)O)c2)cc1` has an IC50 of 15.3 µM.
`O=C(O)c1ccccc1-c1ccc(O)cc1` gave an IC50 of 100.18 µM.
Work on `O=C(O)c1cccc(-c2ccc(O)cc2)c1` yielded an IC50 of 10.59 µM.
`COc1ccc(-c2ccccc2C(=O)O)cc1` was tested, and the IC50 was over 100 µM.
For `O=C(O)c1ccc(-c2ccc(O)cc2)cc1`, the IC50 was 14.7 µM.
